Legend:
[1] = molecular target: T1, recombinant human PARP7 protein (Homo sapiens, UniProt Q7Z3E1); test: Inhibition of PARP7 biological enzyme activity (histone-coated plate, Biotin-NAD+, chemiluminescence); type: biochemical; settings: recombinant human PARP7, Biotin-NAD+ substrate
T1 construct: purchased Abcam ab271651
T1 sequence (Q7Z3E1 1-657): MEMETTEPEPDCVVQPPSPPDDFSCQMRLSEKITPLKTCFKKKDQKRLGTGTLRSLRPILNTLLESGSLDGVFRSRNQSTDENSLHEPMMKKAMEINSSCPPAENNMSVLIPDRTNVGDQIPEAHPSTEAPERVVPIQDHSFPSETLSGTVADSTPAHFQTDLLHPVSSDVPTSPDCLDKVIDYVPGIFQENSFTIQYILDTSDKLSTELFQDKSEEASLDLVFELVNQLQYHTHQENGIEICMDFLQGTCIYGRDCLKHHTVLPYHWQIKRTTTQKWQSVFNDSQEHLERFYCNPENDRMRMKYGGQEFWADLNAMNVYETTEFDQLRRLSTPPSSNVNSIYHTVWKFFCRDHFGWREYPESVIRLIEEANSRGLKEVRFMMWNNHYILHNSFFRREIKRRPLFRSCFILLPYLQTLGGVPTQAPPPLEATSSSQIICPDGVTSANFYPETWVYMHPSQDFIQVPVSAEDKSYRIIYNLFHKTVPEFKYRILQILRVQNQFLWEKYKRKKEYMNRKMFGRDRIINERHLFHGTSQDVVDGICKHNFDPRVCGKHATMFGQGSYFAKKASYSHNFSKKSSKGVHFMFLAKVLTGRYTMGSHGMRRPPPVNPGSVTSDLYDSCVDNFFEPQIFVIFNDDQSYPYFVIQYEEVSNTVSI
Outline: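 Recombinant human PARP7 was preincubated with compound (1000–0.05 nM final) on histone-coated plates for 15 min at 25 °C, then reacted with Biotin-NAD+ for 60 min at 25 °C. Ribosylation was detected by streptavidin-HRP chemiluminescence. IC50 was fitted from % inhibition relative to controls.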

[2] = Pharmacokinetic study in mice (IV and oral gavage); type: in vivo, CD-1 mice; settings: for AUClast (plasma exposure) relative to RBN-2397 / drug plasma half-life (T1/2) relative to RBN-2397 / drug clearance (CL(iv)) relative to RBN-2397 / maximum blood concentration (Cmax) relative to RBN-2397: mice; for drug plasma half-life (T1/2) relative to RBN-2397 / drug clearance (CL(iv)) relative to RBN-2397: intravenous administration; for drug clearance (CL(iv)) relative to RBN-2397: fraction of RBN-2397 value; for clearance / bioavailability / AUC(0-t) / half-life / Cmax: mouse, plasma, male CD-1 mice; for clearance: read-out: CL(iv) (converted); for bioavailability: oral bioavailability, PO 10 mg/kg vs IV 3 mg/kg
Experimental: Formulation of intravenous and oral gavage administration solutions: The compounds to be tested were dissolved in solutions formulated with 5% DMSO, 10% solutol HS15, and 85% saline.
Dosage (measured as the amount of compound in the administration solution (mg)/mouse body weight (kg)): 3 mg/kg intravenously (IV), 10 mg/kg oral gavage (PO).
A total of 18 CD-1 mice (Shanghai Jihui Experimental Animal Feeding Co., LTD.), male, weight 28-31 g, were fasted for 12 hours and randomly divided into 2 groups (Group A and Group B) with 9 mice in each group. Animals in Group A were given the compound solution by oral gavage at the dose of 10 mg/kg. Animals in Group B were given the compound solution by tail vein injection at the dose of 3 mg/kg, and blank blood was taken before administration. About 110 μL of venous blood was taken from animals in Group A at 0.25 h, 0.5 h, 1 h, 2 h, 4 h, 8 h, and 24 h after administration. About 110 μL of venous blood was taken from animals in Group B at 0.083 h, 0.25 h, 0.5 h, 1 h, 2 h, 4 h, 8 h, and 24 h after administration, and all were placed in test tubes with heparin, centrifuged, and plasma was collected and stored at −70° C. for testing.
AUClast represents the area under the drug time curve from the beginning of the administration time to the last point, that is, the area surrounded by the blood drug concentration curve to the time axis. CL(iv) represents the drug clearance of intravenous administration; T1/2 represents the plasma half-life of the drug, which refers to the time required for half of the drug to be eliminated from the body. Cmax represents the maximum concentration of the drug in the plasma after administration. F % indicates oral bioavailability of the drug.

NCI-H1373 cancer cells = test: NCI-H1373 cancer cell growth inhibition (CellTiter-Glo, 144 hours); type: cell-based; settings: Homo sapiens, 144 hours culture
Outline: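 Cells seeded at 3500/well and dosed after 24 h with a 10-point series from 10 μM down to 0.0005 μM (0.2% DMSO). After 144 h, viability was read by CellTiter-Glo luminescence. Growth inhibition was calculated relative to day-0 and solvent-control RLU, and IC50 was obtained from dose-response curve fits.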

Q: What does the source list for `C[C@@H](CONC(=O)CC1CCN(c2ncc(C(F)(F)F)cn2)CC1)Nc1cn[nH]c(=O)c1C(F)(F)F` [Example 17, (S)—N-(2-((6-oxo-5-(trifluoromethyl)-1,6-dihydropyridazin-4-yl)amino)propoxy)-2-(1-(5-(trifluoromethyl)pyrimidin-2-yl)piperidin-4-yl)acetamide]?
A: IC50 [1]: < 10 nM; AUClast (plasma exposure) relative to RBN-2397 ([2]; 3 mg/kg intravenous injection): about 4.4 times; drug plasma half-life (T1/2) relative to RBN-2397 [2]: 8 times; drug clearance (CL(iv)) relative to RBN-2397 [2]: about ⅕; clearance ([2]; IV 3 mg/kg): 15.5 mL/min/kg; bioavailability [2]: 61.3%; AUC(0-t) ([2]; IV 3 mg/kg): 3210 ng·h/mL; half-life ([2]; IV 3 mg/kg): 1.62 h; AUC(0-t) ([2]; PO 10 mg/kg): 6550 ng·h/mL; Cmax ([2]; PO 10 mg/kg): 5320 ng/mL; AUClast (plasma exposure) relative to RBN-2397 ([2]; oral gavage 10 mg/kg): about 11.3 times; maximum blood concentration (Cmax) relative to RBN-2397 ([2]; oral gavage 10 mg/kg): 7.8 times; IC50 (NCI-H1373 cancer cells): < 100 nM

Q: For `C[C@@H](CONC(=O)CC1=CCN(c2ncc(C(F)(F)F)cn2)CC1)Nc1cn[nH]c(=O)c1C(F)(F)F` [Example 25, (S)—N-(2-((6-oxo-5-(trifluoromethyl)-1,6-dihydropyridazin-4-yl)amino)propoxy)-2-(1-(5-(trifluoromethyl)pyrimidin-2-yl)-1,2,3,6-tetrahydropyridin-4-yl)acetamide], which “AUClast (plasma exposure) relative to RBN-2397” value ([2]; 3 mg/kg intravenous injection) is on record?
A: about 3.8 times

Q: And the “drug plasma half-life (T1/2) relative to RBN-2397” value [2]?
A: 27.8 times

Q: And the “drug clearance (CL(iv)) relative to RBN-2397” value [2]?
A: about ⅕

Q: And the clearance ([2]; IV 3 mg/kg)?
A: 17.8 mL/min/kg

Q: What about the bioavailability [2] of the same compound?
A: 75.9%

Q: And the AUC(0-t) ([2]; IV 3 mg/kg)?
A: 2780 ng·h/mL

Q: What about the half-life ([2]; IV 3 mg/kg) of the same compound?
A: 5.55 h

Q: And the AUC(0-t) ([2]; PO 10 mg/kg)?
A: 7060 ng·h/mL

Q: And the Cmax ([2]; PO 10 mg/kg)?
A: 7230 ng/mL

Q: And the “AUClast (plasma exposure) relative to RBN-2397” value ([2]; oral gavage 10 mg/kg)?
A: ~12.1 times

Q: What about the “maximum blood concentration (Cmax) relative to RBN-2397” value ([2]; oral gavage 10 mg/kg) of the same compound?
A: 10.6 times

Q: And the IC50 (NCI-H1373 cancer cells)?
A: < 100 nM
